# Results reported in article PMC9719539, “Single-molecule characterization of subtype-specific β1 integrin mechanics” (Nature Communications, 2022).
# Key:
# [1] = test system: BJ-5ta cells; test: BJ-5ta spreading on ACRGD-TGT with or without integrin blocking Fabs (area, aspect ratio); type: cell-based, human
# Experimental: Fig. 9 Integrin α5β1 mediated cell spreading. a Affinity of ACRGD for integrins on intact cells. Titration curves are shown in Supplementary Fig. 13. b–d Behavior of BJ-5ta on ACRGD-54pN (BHQ2-Cy3) surfaces after 1 h in presence of integrin blocking Fabs described in Fig. 6 legend. b Close-contact enclosed area from RICM images (n = 43, 38, 47, 96, 50 cells). c Aspect ratio of contact area (n = 56, 49, 38 cells, >500 μm^2). d Ruptured TGT counts (n = 44, 40, 48, 96 cells). e–g Cell spreading on ACRGD-TGT of different Ttol in presence of integrin blocking Fabs. e Representative images of cells with RICM (top row) and same cells with DIC or Cy3 fluorescence to show TGT rupture (bottom row). Dim RICM rings (~20 μm diameter) with 12, 23 and 33 pN TGT are the shadows of the spherical cell body, not the close contacts. […]
# The cells were gently harvested by washing in PBS for 1 min, incubating with 0.05% trypsin for 3 min, and then neutralizing with cell culture medium (FBS 10%). […] A Nikon Eclipse Ti microscope equipped with Xenon arc lamp, Nikon perfect focus system, custom total internal reflection fluorescence microscopy (TIRFM) module, and custom reflection interference contrast microscopy (RICM) module was driven by Elements software. […] Images were recorded using an electron-multiplying charge-coupled device (EMCCD; Andor iXon 888).
# [2] = test system: BJ-5ta cells; test: Actin retrograde flow rate (kymographs, SiR-actin); type: cell-based, human; conditions: 64, 71 loci from 15, 13 cells
# Experimental: BJ-5ta cells were seeded on RGD-54pN or LDVP-54pN surfaces for 40 min and 20 nM SiR-actin and 10 µM verapamil (Cytoskeleton, CY-SC001) were added 20 min before imaging. Time-lapse TIRF imaging (640 nm) was done with 2–5 s interval for more than 60 frames. Kymographs were generated with ImageJ and the linear fit analysis was done with MATLAB scripts.
# [3] = test system: BJ-5ta cells; test: Percentage of spread cells / cell spreading on TGT surfaces; type: cell-based, human; conditions: for tension threshold for cell spreading: nominal Ttol
# Experimental: Glass coverslips were densely PEGylated to minimize non-specific interactions such as the binding of cell-secreted extracellular matrix proteins. Coverslips cleaned by piranha etching solution (a 3:1 mixture of sulfuric acid and hydrogen peroxide) were incubated in silanization solution (UCT, 1760-24-3; 2% aminosilane and 5% acetic acid in methanol) for 30 min and reacted with a mixture of Polyethylene glycol (PEG) with and without biotin (1:19, 150 mg/ml; Laysan Bio, Biotin-PEG-SVA-5000 and MPEG-SVA-5000) for 4 h. Surfaces were washed thoroughly and dried using nitrogen gas after each step. A 3D-printed dish (PLA) or a silicon gasket (Grace Bio Labs, 103280) was attached to the coverslip to form a dish. Neutravidin (Thermo Fisher scientific, 31000; 0.4 mg/ml) was added to the dish for 10 min and washed out thoroughly. The dish was emptied and a droplet (3 µL) of TGT solution (100 nM unless specified otherwise) was placed on the coverslip for 10 min in a humid condition to locally immobilize TGT. For the lateral drift correction for time-resolved TGT rupture analysis, biotin-coated gold nanoparticles (Luna Nanotech, GNP-BIOT-100-2-04; 100 nm) were sparsely immobilized as fiducial markers. For protein ligand coating, protein (50 ug/ml in PBS) was incubated in glass bottomed imaging dishes for 1 h at RT without additional passivation.
# The cells were gently harvested by washing in PBS for 1 min, incubating with 0.05% trypsin for 3 min, and then neutralizing with cell culture medium (FBS 10%). The cells were spun down and resuspended with Leibovitz’s L-15 Medium (Gibco, 21083027) supplemented with 2 g/L glucose, then seeded on the TGT surface at an approximate density of 30 cells/mm^2. For integrin inhibition experiments, cells were incubated with Fab for 5 min before seeding. For cell immobilization experiments, cells were incubated with 1 nM Cholesterol-PEG-Biotin (Nanosoft Polymers, 3084-2000) for 5 min, followed by washes by centrifugation to remove biotin in solution before seeding. The imaging area was humidified and the temperature was maintained at 37 °C. A Nikon Eclipse Ti microscope equipped with Xenon arc lamp, Nikon perfect focus system, custom total internal reflection fluorescence microscopy (TIRFM) module, and custom reflection interference contrast microscopy (RICM) module was driven by Elements software. Dark regions in RICM show where cells have closely adhered to the surface (≪300 nm gap). Nikon 10X objective (CFI60 Plan Fluor) and 60X objective (CFI60 Apochromat TIRF) with DIC filter sets were used. […] Images were recorded using an electron-multiplying charge-coupled device (EMCCD; Andor iXon 888).
# Single-cell data were obtained from multiple independent sample preparations for each condition as specified. Percentage of spread cells was obtained from three independent experiments. Statistical analyses were performed using MATLAB software. Two-sided (two sample) t-test was used for two group comparisons. Each group was compared with the control group unless specified otherwise. Representative micrographs are selected from at least two independent experiments.
# [4] = molecular target: T1, integrin αVβ5 (Homo sapiens, UniProt P06756+P18084); test: Competition with cRGDfK-TF5WS binding to αVβ5 on K562 transfectants
# T1 construct: expressed in transfected cells
# From the text: (§1) Source data are provided as a Source Data file. […]
# (§2) Source data are provided as a Source Data file.
# (§3) (1 picture or pasted object on this page, not shown here)
# [5] = molecular target: T2, integrin αVβ3 (Homo sapiens, UniProt P05106+P06756); test: Competition with cRGDfK-TF5WS binding to αVβ3 on K562 transfectants
# T2 construct: expressed in transfected cells
# From the text: as §1, §2, §3
# [6] = test system: extended-open β1 integrin on BJ-5ta cells; test: β1 integrin activation: number and density of bound AF647-12G10 Fab on biotin-PEG-cholesterol immobilized cells; type: cell-based, human
# [7] = test system: BJ-5ta cells; test: Cytoskeletal inhibitor effects on TGT rupture and spreading; type: cell-based, human; conditions: for cell spreading with inhibitor (in words): RGD- and LDVP-TGT; for cell spreading with inhibitor (in words) / TGT rupture with inhibitor (in words), all substrates: 1 h; for TGT rupture with inhibitor (in words), all substrates: inhibitors 5 min preincubation
# From the text: (21 pictures or pasted objects on this page, not shown here)
# [8] = molecular target: integrin α4β1 (EO state); conditions: extended-open conformation; read-out: affinity for EO state of α4β1; cited from earlier work
# [9] = test system: BJ-5ta cells; test: Traction force microscopy on ligand-coated polyacrylamide gels; type: cell-based, human
# Experimental: Polyacrylamide gels (0.69 and 4.07 kPa shear modulus, 40 μm thickness) were prepared on glass coverslips with embedded 40 nm fluorescent beads (Thermo Scientific, TransFluoSpheres 633/720) and the surfaces were coated with neutravidin as described. […] Cells were seeded on the gels for 1 h. The bead images were taken before and after cell removal with the addition of 0.1% SDS. Bead displacements were determined using particle image velocimetry, and the corresponding contractile energy was estimated with Fourier transform traction cytometry, using ImageJ plugins. The cell area was determined by manually drawing an ROI in the DIC channel. Imaging was performed on Nikon Eclipse Ti2 microscopes equipped with Perfect Focus, CSU-W1 spinning disk, and Hamamatsu Orca-flash 4.0 v3 camera. Illumination was provided by optical fiber (Oz Optics) coupled solid-state lasers: 561 nm (200 mW) for Cy3 and, 655 nm (100 mW) for fluorescent beads from Spectral Applied Research.
molecule,measurement,setting,value
cyclic-ACRGDGWCGK (disulfide) [ACRGD-TGT],spreading on ACRGD-54pN with blocking Fabs (in words),"[1]; ACRGD-54pN (BHQ2-Cy3), 1 h","spread efficiently and developed elongated, irregular shapes"
same,force level required for spreading through α5β1,"[1]; blocking Fabs to αVβ1, αVβ3 and αVβ5 present",> 33 pN
"cyclo [Arg-Gly-Asp-D-Phe-Lys(8-amino-3,6-dioxaoctanoic acid dimer)] (head to tail) [RGD-TGT]",retrograde actin flow,[2],10.1 nm/s
same,tension threshold for cell spreading,[3]; 1 h,33–43 pN
C[C@H](N)C(=O)N[C@H]1CSSC[C@@H](C(=O)NCC(=O)O)NC(=O)[C@H](Cc2c[nH]c3ccccc23)NC(=O)CNC(=O)[C@H](CC(=O)O)NC(=O)CNC(=O)[C@H](CCCNC(=N)N)NC1=O,EC50,"[4]; EC50 αVβ5, L15 + 1 mM Mn2+, competition with 25 nM cRGDfK-TF5WS",0.102 ± 0.007 µM
same,EC50,"[4]; EC50 αVβ5, L15, no Mn2+, competition with 50 nM cRGDfK-TF5WS",0.367 ± 0.029 µM
same,Kd,"[4]; Kd αVβ5, L15 + 1 mM Mn2+, 1% BSA, competition with 25 nM cRGDfK-TF5WS",0.05 ± 0.004 µM
same,IC50,[5],0.765 ± 0.084 µM
same,Kd,"[5]; Kd αVβ3, L15 + 1 mM Mn2+, 1% BSA, competition with 25 nM cRGDfK-TF5WS",0.17 ± 0.02 µM
same,Kd,"[5]; Kd αVβ3, L15, 1% BSA, no Mn2+, competition with cRGDfK-TF5WS (25 nM for Fabs, 50 nM for ACRGDGWCG), Kd = EC50/(1+CL/Kd,L)",0.53 ± 0.06 µM
"MUPA-LDVPAAK [LDVP-TGT, tension gauge tether conjugated with MUPA-LDVPAAK]",retrograde actin flow,[2],24.8 nm/s
same,tension threshold for cell spreading,[3]; 1 h,< 12 pN
same,cell spreading (in words),[3]; 1 h after seeding,adhered and spread well
same,force needed for activation of β1 integrin to high affinity state,[6],less than 12 pN
same,12G10 Fab density / activated β1 density (in words),"[6]; versus control, 30 min",significantly above the control and similar at all Ttol
C[C@@H](N)[C@H]1CC[C@H](C(=O)Nc2ccncc2)CC1 [Y-27632],rupture of RGD-54pN with inhibitor (in words),[7]; RGD-54pN,significantly suppressed
same,cell spreading with inhibitor (in words),[7],did not disrupt cell spreading
O=C1NC(=S)N(c2cccc(Br)c2)C(=O)/C1=C/c1ccco1 [SMIFH2],"TGT rupture with inhibitor (in words), all substrates",[7],greatly diminished TGT rupture
same,cell spreading with inhibitor (in words),[7],greatly decreased spreading
O=S(=O)(c1cccc2c(I)cccc12)N1CCCNCC1 [ML-7],rupture of RGD-54pN with inhibitor (in words),[7]; RGD-54pN,significantly suppressed
same,cell spreading with inhibitor (in words),[7],did not disrupt cell spreading
Cc1[nH]c2ccccc2c1CCNC(=O)c1ccccc1F [CK666],"TGT rupture with inhibitor (in words), all substrates",[7],no significant effect
proTGF-β1: physiologic macromolecular ligand with RGD motif,cell morphology (in words),[3]; 1 h after seeding,elongated with irregular lamellipodia
C=C1[C@@H](C)[C@H]2[C@H](Cc3ccccc3)NC(=O)[C@]23[C@H](OC(C)=O)/C=C/[C@@](C)(O)C(=O)[C@@H](C)C/C=C/[C@H]3[C@@H]1O [Cytochalasin D],"TGT rupture with inhibitor (in words), all substrates",[7],eliminated TGT rupture on all substrates
same,cell spreading with inhibitor (in words),[7],inhibited cell spreading
MUPA-LDVPAAK [α4β1-specific peptidomimetic; 2-methylphenylureaphenylacetyl moiety linked to LDVP motif],"spread cells (fraction), sheet 1c",[3]; TGT 0.01 nM,0.05399
same,"spread cells (fraction), sheet 1c",[3]; TGT 0.1 nM,0
same,"spread cells (fraction), sheet 1c",[3]; TGT 0.3 nM,0.8785
same,"spread cells (fraction), sheet 1c",[3]; TGT 1 nM,0.9623
same,"spread cells (fraction), sheet 1c",[3]; TGT 10 nM,0.9712
same,"spread cells (fraction), sheet 1c",[3]; TGT 100 nM,0.9873
same,"Spread cells on TGT, 12pN","[3]; Ttol 12pN, 1 h, mean, SE in own column, n = 3 independent experiments, given as fraction",0.9277
same,"Spread cells on TGT, 23pN","[3]; Ttol 23pN, 1 h, mean, n = 3, given as fraction",0.9461
same,"Spread cells on TGT, 33pN","[3]; Ttol 33pN, 1 h, mean, n = 3, given as fraction",0.9711
same,"Spread cells on TGT, 43pN","[3]; Ttol 43pN, 1 h, mean, n = 3, given as fraction",0.9954
same,"Spread cells on TGT, 54pN","[3]; Ttol 54pN, 1 h, mean, n = 3, given as fraction",0.9781
same,Kd,[8],0.00015 µM
same,traction force (in words),"[9]; 4 kPa and 0.7 kPa gels, versus RGD",significantly lower
same,lower traction force than on RGD,[9]; soft gel (0.7 kPa),~ 10 fold
Cc1ccc2c(c1)C(=O)[C@]1(O)CCN(c3ccc(N)cc3)C1=N2 [para-amino-blebbistatin],rupture of LDVP-12pN with inhibitor (in words),"[7]; LDVP-12pN, 50 uM, listed as para-amino-Blebbistatin",no role
same,share of rupture requiring myosin II (para-amino-Blebbistatin),[7]; LDVP-33pN,about one third
same,rupture of LDVP-33pN with inhibitor (in words),"[7]; LDVP-33pN, 50 uM",significantly reduced rupture events
same,rupture of RGD-54pN with inhibitor (in words),[7]; RGD-54pN,significantly suppressed
same,share of rupture requiring myosin II (para-amino-Blebbistatin),[7]; RGD-54pN,half
same,cell spreading with inhibitor (in words),[7],did not disrupt cell spreading
